The nature of series [1]: Stability of crystal form I in the formulation. Format: physicochemical. The protocol: (§1) The dehydration risk of the monohydrate crystal form was also evaluated by using VT-XRPD (variable temperature X-ray powder diffraction) in the present invention. […] The stability of crystal forms I and IV in the solid-state was also studied in the present invention.
Series [2] in a line: Solid-state stability under accelerated conditions, open container. It counts as physicochemical. As to conditions: one month. Here is the method: as §1
Series [3] is described as follows: High humidity test (influencing factor stability test). It counts as physicochemical. As to conditions: for Change of purities/related substance contents: under high humidity and light exposure (summary of Table 1). Here is the method:
(§2) Test samples: crystal form I and crystal form II of the compound of formula (1) were prepared according to the above examples.
(§3) Test conditions for investigating the influencing factors:
High humidity test: Crystal form I and crystal form II of the compound of formula (1) were laid on a dry and clean watch glass, and kept at 40° C.±2° C., and 75% RH±5% for 10 days. Samples were taken respectively on Day 5 and Day 10. The purity and the related substance content of the compound of formula (1) were determined and compared with those of the sample taken on Day 0.

Series [4] is described as follows: Hygroscopicity test according to Chinese Pharmacopoeia. It counts as physicochemical. To be noted: for Weight gain due to hygroscopicity: 25±1° C., 80%+2% relative humidity; for Hygroscopicity, summary in words: summary of hygroscopicity test. Here is the method: Test Example 3: Hygroscopicity Test (According to Chinese Pharmacopoeia, Guidelines for Drug
Hygroscopicity Testing, at 25±1° C., and 80%+2% Relative Humidity)
An appropriate amount of the sample from the examples was taken for the hygroscopicity test.

Series [5] can be described thus: Thermodynamic stability of crystal forms. It counts as physicochemical. The protocol:
as §1

Series [6] is described as follows: Photostability test (influencing factor stability test). It counts as physicochemical. To be noted: illuminance 5000 Lx ± 500 Lx. The protocol: as §2, §3
Photostablity test: Crystal form I and crystal form II of the compound of formula (1) were laid on a dry and clean watch glass, and kept at an illuminance of 5000 Lx±500 Lx in a light box for 10 days. Samples were taken respectively on Day 5 and Day 10. The purity and the related substance content of the compound of formula (1) were determined and compared with those of the sample taken on Day 0.

Series [7] can be described thus: Kinetic stability in the solid state (long-term storage). It counts as physicochemical. As to conditions: stored at 10° C.-30° C. in double-sealed aluminum packaging and plastic self-sealing bags for more than 6 years. The protocol:
as §1

Series [8] can be described thus: Dehydration risk of monohydrate crystal form by VT-XRPD. It counts as physicochemical. The protocol:
as §1

Series [9] in a line: In vivo PK after oral administration in SD rats. To be noted: for Half-life (t1/2), comparison in words: SD rats, PO, summary of Table 2; for t1/2: male SD rats, PO 2 mg/kg, plasma, mean ± SD, n = 3. The protocol:
Test samples: the compound of represented by formula (1), and crystal forms I and II of the compound of formula (1) were prepared according to Examples 1-3;
The tris (i.e. tris(hydroxymethyl)aminomethane) salt crystal form of the compound 8-chloro-3-pentyl-3,7-dihydro-1H-purine-2,6-dione was prepared with reference to WO2010/068581A1.
Oral administration (PO) of four samples:
The concentrations of the test substances were output using Analyst 1.6.2 from AB Sciex. Parameters such as mean, standard deviation, and variation coefficient were calculated using Microsoft Excel (those directly output by Analyst 1.6.2 were not recalculated). PK parameters were calculated using Pharsight Phoenix 6.2 software (NCA model).

Series [10] can be described thus: Transformation of crystal form on standing under ambient conditions. As to conditions: 25-30° C., 70-85% RH, about 10 hours. It counts as physicochemical.
The next series has as its system uric acid. As to conditions: cited from earlier work.
The conditions of series [11]: compared with the free acid; cited from earlier work.
For series [12] the following is noted: cited from earlier work.
[13] abbreviates: 40° C. ± 2° C./75% ± 5% RH, Day 5.
Where [14] appears, read: 40° C. ± 2° C./75% ± 5% RH, Day 10.
Setting [15] is: Day 0, sample before exposure (baseline for both tests).

With `CCCCCn1c(=O)[nH]c(=O)c2[nH]c(Cl)nc21` [Crystal form I, 8-chloro-3-pentyl-3,7-dihydro-1H-purine-2,6-dione], the “Content of crystal form III in the formulation” value in series [1] (formulation stored at 25° C./60% RH for 9 months) and in [1] (formulation stored at 40° C./75% RH for 6 months) was “below LOD” in each case. Further, the “Crystal form transformation after storage” value in series [2] (25° C./92.5% RH) and in [2] (40° C./75% RH) was “did not transform” throughout. The Purity in [3] (setting [13]) was 99.5%; in series [3] (setting [14]) it was 99.6%; in series [3] (setting [15]), 99.6%; in series [6] (Day 5), 99.6%; in series [6] (Day 10), 99.5%. For the same molecule, the Related substance in series [3] (setting [13]) is 0.46%; in [3] (setting [14]) it was 0.42%; in series [3] (setting [15]), 0.45%; in series [6] (Day 5), 0.44%; in [6] (Day 10), 0.46%. The “Change of purities/related substance contents” value in [3] is “changed very little”. Besides, the “Weight gain due to hygroscopicity” value in series [4] is recorded as under 0.2%. The “Hygroscopicity, summary in words” value in series [4] is “extremely low hygroscopicity”. For the same molecule, the “Thermodynamic stability for pharmaceutical applications” value (shortened to “Thermodynamic stability”) in series [5] is recorded as “advantageous”. The “Crystal form after long-term storage” value in series [7] is reported as “remained unchanged”. For the same molecule, the Dehydration risk entry in series [8] is reported as “very low”. Also, the “Half-life (t1/2), comparison in words” value in series [9] is reported as “longer half-lifes”. In series [9] (2 mg/kg), this molecule gave a t1/2 of 5.28 ± 1.10 h.
Consider `CCCCCn1c(=O)[nH]c(=O)c2[nH]c(Cl)nc21` [Crystal form II, 8-chloro-3-pentyl-3,7-dihydro-1H-purine-2,6-dione], for which the Purity in series [3] (setting [13]), in series [3] (setting [14]), in series [3] (setting [15]), in [6] (Day 5) and in [6] (Day 10) was 99.7% each time. Besides, the Related substance in series [3] (setting [13]) was determined as 0.31%; in series [3] (setting [14]), 0.32%; in series [3] (setting [15]) it was 0.32%; in series [6] (Day 5), 0.31%; in series [6] (Day 10), 0.32%. Further, the “Change of purities/related substance contents” value in [3] is listed as “changed very little”. The “Weight gain due to hygroscopicity” value in [4] is given as under 0.2%. Besides, in [4], the “Hygroscopicity, summary in words” value is listed as “extremely low hygroscopicity”. The “Thermodynamic stability” value in series [5] is “advantageous”. Besides, the “Half-life (t1/2), comparison in words” value in series [9] was “longer half-lifes”. Further, the t1/2 in series [9] (2 mg/kg) is given as 4.26 ± 0.61 h.
Regarding `CCCCCn1c(=O)[nH]c(=O)c2[nH]c(Cl)nc21` [Crystal form III, 8-chloro-3-pentyl-3,7-dihydro-1H-purine-2,6-dione], in [5], the “Thermodynamic stability” value was “suboptimal”.
`CCCCCn1c(=O)[nH]c(=O)c2[nH]c(Cl)nc21` [Crystal form IV, 8-chloro-3-pentyl-3,7-dihydro-1H-purine-2,6-dione]: the “Crystal form transformation after storage” value in series [2] (25° C./92.5% RH) and in series [2] (40° C./75% RH) was “transformed into crystal form I” throughout.
Take `CCCCCn1c(=O)[nH]c(=O)c2[nH]c(Cl)nc21` [Crystal form V, 8-chloro-3-pentyl-3,7-dihydro-1H-purine-2,6-dione]: the “Crystal form transformation under ambient conditions” value in [10] is reported as “transform into crystal form IV”.
`CCCCCn1c(=O)[nH]c(=O)c2[nH]c(Cl)nc21` [Formula (1), 8-chloro-3-pentyl-3,7-dihydro-1H-purine-2,6-dione]: the Uric acid-lowering effect entry in the series on uric acid is “good uric acid-lowering effect”.
The molecule `CCCCCn1c(=O)[nH]c(=O)c2[nH]c(Cl)nc21` [Solid product of Example 1, 8-chloro-3-pentyl-3,7-dihydro-1H-purine-2,6-dione monohydrate, reference compound] registered a t1/2 in [9] (monohydrate, 2 mg/kg) of 2.32 ± 0.09 h.
Consider `CCCCCn1c(=O)[nH]c(=O)c2[nH]c(Cl)nc21.NC(CO)(CO)CO` [tris salt crystal form, 8-chloro-3-pentyl-3,7-dihydro-1H-purine-2,6-dione tris(hydroxymethyl)aminomethane salt], for which, in series [11], the Cmax entry is recorded as “increased Cmax” and the Tmax entry was “decreased Tmax”. Also, the “Solubility compared with the free acid” value in series [12] is reported as “higher solubility”. Besides, the t1/2 in series [9] came to 2.38 ± 0.17 h.

The values are drawn from US20260035370A1, “CRYSTAL FORM OF 8-CHLORO-3-PENTYL-3,7-DIHYDRO-1H-PURIN-2,6-DIONE COMPOUND AND PREPARATION METHOD THEREFOR” (Shanton Pharma Pte. Ltd., priority 2023, published 2026).
